Source: PubChem BioAssay AID192 (DTP/NCI, 2004)
Where “and” joins values, the source holds several entries; their conditions need not be identical. Identical values can stand only once. Inconclusive results and toxic doses are left out.

Test system: BDF1 mice, B16 melanoma ip, median survival T/C
Experiment: NCI In Vivo Anticancer Drug Screen. Data for tumor model B16 Melanoma (intraperitoneal) in B6D2F1 (BDF1) mice
Conditions: endpoint: median survival time, higher = longer survival
In short: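 Each result divides a survival or tumor-size measurement in the compound-treated group by the same measurement in the vehicle group.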

[1] = dose: 50.0 mg/kg/injection, schedule: Q01DX009 (ip), vehicle: Klucel (hydroxypropylcellulose) (HPC)
[2] = dose: 100.0 mg/kg/injection, schedule: Q01DX009 (ip), vehicle: Klucel (hydroxypropylcellulose) (HPC)
[3] = dose: 200.0 mg/kg/injection, schedule: Q01DX009 (ip), vehicle: Klucel (hydroxypropylcellulose) (HPC)

O=P(N1CC1)(N1CC1)N1CC1
T/C (dose: 0.75 mg/kg/injection, schedule: Q01DX009 (ip), vehicle: saline with Tween-80): 120 % of control | T/C (dose: 1.0 mg/kg/injection, schedule: Q01DX009 (ip), vehicle: saline): 110 % of control | T/C (dose: 2.0 mg/kg/injection, schedule: Q01DX009 (ip), vehicle: saline): 120 % of control

Cc1ccc(CO)cc1C
T/C (dose: 50.0 mg/kg/injection, schedule: Q04DX003 (ip), vehicle: saline with Tween-80): 100 % of control | T/C (dose: 100.0 mg/kg/injection, schedule: Q04DX003 (ip), vehicle: saline with Tween-80): 102 % of control | T/C (dose: 200.0 mg/kg/injection, schedule: Q04DX003 (ip), vehicle: saline with Tween-80): 104 % of control

Oc1ccccc1N=Cc1ccc(C=Nc2ccccc2O)cc1
T/C (dose: 133.0 mg/kg/injection, schedule: Q01DX009 (ip), vehicle: gum acacia): 88 % of control | T/C (dose: 200.0 mg/kg/injection, schedule: Q01DX009 (ip), vehicle: gum acacia): 99 % of control

NC(CSCCc1ccccn1)C(=O)O (configuration not stated)
T/C (dose: 25.0 mg/kg/injection, schedule: Q01DX009 (ip), vehicle: saline): 100 % of control | T/C (dose: 50.0 mg/kg/injection, schedule: Q01DX009 (ip), vehicle: saline): 100 % of control | T/C (dose: 100.0 mg/kg/injection, schedule: Q01DX009 (ip), vehicle: saline): 110 % of control | T/C (dose: 100.0 mg/kg/injection, schedule: Q04DX003 (ip), vehicle: saline): 104 % of control | T/C (dose: 200.0 mg/kg/injection, schedule: Q04DX003 (ip), vehicle: saline): 104 % of control | T/C (dose: 400.0 mg/kg/injection, schedule: Q04DX003 (ip), vehicle: saline): 104 % of control

CC(=O)OC1c2ccccc2C(=O)C1(OC(C)=O)c1ccccc1 (configuration not stated)
T/C [1]: 102 % of control | T/C [2]: 94 % of control | T/C [3]: 102 % of control

O=C(Cl)c1ccccc1S(=O)(=O)N(CCOc1ccccc1)c1ccccc1
T/C [2]: 90 % of control | T/C [3]: 96 % of control | T/C (dose: 400.0 mg/kg/injection, schedule: Q01DX009 (ip), vehicle: Klucel (hydroxypropylcellulose) (HPC)): 87 % of control

Cc1ccc(NC(=O)N(CCCl)N=O)cc1C
T/C (dose: 3.12 mg/kg/injection, schedule: Q01DX009 (ip), vehicle: Klucel (hydroxypropylcellulose) (HPC)): 150 % of control | T/C (dose: 6.25 mg/kg/injection, schedule: Q01DX009 (ip), vehicle: Klucel (hydroxypropylcellulose) (HPC)): 150 % of control

NC1(C(=O)O)CSSC1
T/C (dose: 25.0 mg/kg/injection, schedule: Q01DX009 (ip), vehicle: Klucel (hydroxypropylcellulose) (HPC)): 95 % of control | T/C [1]: 100 % of control

COc1cccc2c1C(=O)c1c(O)c3c(c(O)c1C2=O)C[C@H](O)C[C@@H]3OC1CC(N)C(O)C(C)O1 (some centres not stated)
T/C (dose: 12.5 mg/kg/injection, schedule: Q01DX001 (ip), vehicle: water): 169 % of control | T/C (dose: 50.0 mg/kg/injection, schedule: Q01DX001 (ip), vehicle: water): 110 % of control and 169 % of control and 267 % of control | T/C (dose: 100.0 mg/kg/injection, schedule: Q01DX001 (ip), vehicle: water): 110 % of control

CCCCCCCCCCCCCCCCOc1ccc(C(=O)CC(=O)OC)cc1
T/C [2]: 105 % of control | T/C [3]: 94 % of control

Cc1cc(NS(=O)(=O)c2ccccc2)c2c(c1NS(=O)(=O)c1ccccc1)CC=CC2
T/C (dose: 100.0 mg/kg/injection, schedule: Q04DX003 (ip), vehicle: Klucel (hydroxypropylcellulose) (HPC)): 97 % of control | T/C (dose: 200.0 mg/kg/injection, schedule: Q04DX003 (ip), vehicle: Klucel (hydroxypropylcellulose) (HPC)): 94 % of control | T/C (dose: 400.0 mg/kg/injection, schedule: Q04DX003 (ip), vehicle: Klucel (hydroxypropylcellulose) (HPC)): 86 % of control

COC(=O)c1cc(C)c(Br)c(N)c1
T/C (dose: 37.5 mg/kg/injection, schedule: Q04DX003 (ip), vehicle: Klucel (hydroxypropylcellulose) (HPC)): 97 % of control | T/C (dose: 75.0 mg/kg/injection, schedule: Q04DX003 (ip), vehicle: Klucel (hydroxypropylcellulose) (HPC)): 92 % of control | T/C (dose: 150.0 mg/kg/injection, schedule: Q04DX003 (ip), vehicle: Klucel (hydroxypropylcellulose) (HPC)): 94 % of control

CCOC(=O)NC(C)(C)CC(C)(C)C
T/C [2]: 106 % of control

C[n+]1c2ccccc2cc2ccccc21
T/C (dose: 1.56 mg/kg/injection, schedule: Q01DX009 (ip), vehicle: saline with Tween-80): 97 % of control | T/C (dose: 6.25 mg/kg/injection, schedule: Q01DX009 (ip), vehicle: saline with Tween-80): 90 % of control and 94 % of control

CN1CCC23c4ccccc4NC1C21CCN(C)C3Nc2ccccc21
T/C (dose: 1.87 mg/kg/injection, schedule: Q01DX009 (ip), vehicle: saline): 107 % of control | T/C (dose: 3.75 mg/kg/injection, schedule: Q01DX009 (ip), vehicle: saline): 107 % of control | T/C (dose: 7.5 mg/kg/injection, schedule: Q01DX009 (ip), vehicle: saline): 109 % of control

CCCCCCCNC(=O)Nc1cccc(Cl)c1C
T/C [1]: 99 % of control | T/C [2]: 90 % of control | T/C [3]: 95 % of control

CC(O)C(O)C=O (configuration not stated)
T/C (dose: 248.0 mg/kg/injection, schedule: Q01DX009 (ip), vehicle: saline): 108 % of control | T/C (dose: 346.0 mg/kg/injection, schedule: Q01DX009 (ip), vehicle: saline): 97 % of control | T/C (dose: 576.0 mg/kg/injection, schedule: Q01DX009 (ip), vehicle: saline): 104 % of control
